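Protocol summary: plate cells (96-well), add compound at 5 concentrations, incubate 48 h, interpolate endpoints linearly. The concentration for full growth arrest is given as TGI.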
Assays:
Test in all cases: NCI tumour cell line growth inhibition, 48 h
[1] = tested on: SNB-78 CNS
[2] = tested on: UACC-62 melanoma
[3] = tested on: A498 renal
[4] = tested on: CAKI-1 renal
[5] = tested on: M14 melanoma
[6] = tested on: SN12C renal
[7] = tested on: NCI-H522 lung
[8] = tested on: UO-31 renal
[9] = tested on: DMS 114 small cell lung
[10] = tested on: HOP-92 NSCLC
[11] = tested on: COLO 205 colon
[12] = tested on: M19-MEL melanoma
[13] = tested on: NCI-H23 lung
[14] = tested on: MALME-3M melanoma
[15] = tested on: SNB-75 CNS
[16] = tested on: SK-MEL-28 melanoma
[17] = tested on: IGROV1 ovarian
[18] = tested on: SK-MEL-2 melanoma
[19] = tested on: SF-268 CNS
[20] = tested on: XF 498 CNS
[21] = tested on: K-562 leukemia
[22] = tested on: HCT-116 colon
[23] = tested on: 786-0 renal
[24] = tested on: SK-OV-3 ovarian
[25] = tested on: DLD-1 colon
[26] = tested on: OVCAR-4 ovarian
[27] = tested on: SR leukemia
[28] = tested on: HL-60(TB) leukemia
[29] = tested on: NCI-H226 lung
[30] = tested on: SF-539 CNS
[31] = tested on: HCC-2998 colon
[32] = tested on: CCRF-CEM leukemia
[33] = tested on: HOP-62 NSCLC
[34] = tested on: DMS 273 small cell lung
[35] = tested on: LXFL 529 NSCLC
[36] = tested on: RXF-631 renal
[37] = tested on: NCI-H460 lung
[38] = tested on: HT29 colon
[39] = tested on: KM12 colon
[40] = tested on: KM20L2 colon
[41] = tested on: SW-620 colon
[42] = tested on: MCF7 breast
[43] = tested on: NCI/ADR-RES ovarian
[44] = tested on: SK-MEL-5 melanoma
[45] = tested on: HOP-18 NSCLC
[46] = tested on: P388 leukemia
[47] = tested on: SF-295 CNS
[48] = tested on: MOLT-4 leukemia
[49] = tested on: OVCAR-3 ovarian
[50] = tested on: U251 CNS
[51] = tested on: EKVX NSCLC
[52] = tested on: LOX IMVI melanoma
[53] = tested on: SNB-19 CNS
[54] = tested on: RXF 393 renal
[55] = tested on: A549 NSCLC
[56] = tested on: HCT-15 colon
[57] = tested on: SN12K1 renal
[58] = tested on: OVCAR-5 ovarian
[59] = tested on: UACC-257 melanoma
[60] = tested on: OVCAR-8 ovarian
[61] = tested on: P388/ADR leukemia
[62] = tested on: RPMI-8226 leukemia
[63] = tested on: ACHN renal

SMILES: COc1cc([C@H]2Oc3c(c(O)cc4oc(-c5ccccc5)cc(=O)c34)O[C@@H]2CO)ccc1O
- TGI [1]: > 100 µM
- TGI [2]: > 100 µM
- TGI [3]: > 100 µM
- TGI [4]: > 100 µM
- TGI [5]: 38.5 µM
- TGI [6]: > 100 µM
- TGI [7]: > 100 µM
- TGI [8]: > 100 µM
- TGI [9]: > 100 µM
- TGI [10]: 87.6 µM
- TGI [11]: > 100 µM
- TGI [12]: > 100 µM
- TGI [13]: > 100 µM
- TGI [14]: 83.4 µM
- TGI [15]: > 100 µM
- TGI [16]: > 100 µM
- TGI [17]: > 100 µM
- TGI [18]: 57.6 µM
- TGI [19]: > 100 µM
- TGI [20]: > 100 µM
- TGI [21]: > 100 µM
- TGI [22]: > 100 µM
- TGI [23]: > 100 µM
- TGI [24]: > 100 µM
- TGI [25]: 56.4 µM
- TGI [26]: > 100 µM
- TGI [27]: 36.7 µM
- TGI [28]: 36.2 µM
- TGI [29]: > 100 µM
- TGI [30]: > 100 µM
- TGI [31]: > 100 µM
- TGI [32]: 23.7 µM
- TGI [33]: > 100 µM
- TGI [34]: 25 µM
- TGI [35]: > 100 µM
- TGI [36]: 62.7 µM
- TGI [37]: 32.5 µM

SMILES: CN1OC(=O)N(C)C1c1ccccc1 (stereo not drawn)
- TGI [1]: > 100 µM
- TGI [2]: > 100 µM
- TGI [38]: > 100 µM
- TGI [39]: > 100 µM
- TGI [3]: > 100 µM
- TGI [40]: > 100 µM
- TGI [41]: > 100 µM
- TGI [6]: > 100 µM
- TGI [7]: > 100 µM
- TGI [8]: > 100 µM
- TGI [42]: > 100 µM
- TGI [9]: > 100 µM
- TGI [43]: > 100 µM
- TGI [44]: > 100 µM
- TGI [45]: > 100 µM
- TGI [46]: > 100 µM
- TGI [10]: > 100 µM
- TGI [11]: > 100 µM
- TGI [12]: > 100 µM
- TGI [13]: > 100 µM
- TGI [14]: > 100 µM
- TGI [47]: > 100 µM
- TGI [15]: > 100 µM
- TGI [16]: > 100 µM
- TGI [48]: > 100 µM
- TGI [17]: > 100 µM
- TGI [18]: > 100 µM
- TGI [19]: > 100 µM
- TGI [49]: > 100 µM
- TGI [20]: > 100 µM
- TGI [50]: > 100 µM
- TGI [21]: > 100 µM
- TGI [22]: > 100 µM
- TGI [51]: > 100 µM
- TGI [52]: > 100 µM
- TGI [24]: > 100 µM
- TGI [25]: > 100 µM
- TGI [26]: > 100 µM
- TGI [53]: > 100 µM
- TGI [28]: > 100 µM
- TGI [54]: > 100 µM
- TGI [29]: > 100 µM
- TGI [30]: > 100 µM
- TGI [31]: > 100 µM
- TGI [32]: > 100 µM
- TGI [55]: > 100 µM
- TGI [33]: > 100 µM
- TGI [56]: > 100 µM
- TGI [34]: > 100 µM
- TGI [57]: > 100 µM
- TGI [58]: > 100 µM
- TGI [59]: > 100 µM
- TGI [60]: > 100 µM
- TGI [61]: > 100 µM
- TGI [37]: > 100 µM
- TGI [62]: > 100 µM

SMILES: Nc1ccn(C2OC(COP(=O)(O)Oc3ccccc3)C(O)C2O)c(=O)n1 (stereo not drawn)
- TGI [1]: > 100 µM
- TGI [2]: > 100 µM
- TGI [38]: > 100 µM
- TGI [39]: > 100 µM
- TGI [3]: > 100 µM
- TGI [4]: > 100 µM
- TGI [40]: > 100 µM
- TGI [41]: > 100 µM
- TGI [6]: > 100 µM
- TGI [7]: > 100 µM
- TGI [8]: > 100 µM
- TGI [42]: > 100 µM
- TGI [9]: > 100 µM
- TGI [43]: > 100 µM
- TGI [44]: > 100 µM
- TGI [45]: 98.1 µM
- TGI [46]: 15.7 µM
- TGI [10]: > 100 µM
- TGI [11]: > 100 µM
- TGI [12]: > 100 µM
- TGI [13]: > 100 µM
- TGI [14]: > 100 µM
- TGI [47]: > 100 µM
- TGI [15]: > 100 µM
- TGI [16]: > 100 µM
- TGI [48]: > 100 µM
- TGI [17]: > 100 µM
- TGI [18]: > 100 µM
- TGI [19]: > 100 µM
- TGI [49]: > 100 µM
- TGI [50]: > 100 µM
- TGI [21]: > 100 µM
- TGI [22]: > 100 µM
- TGI [51]: > 100 µM
- TGI [52]: > 100 µM
- TGI [24]: > 100 µM
- TGI [25]: > 100 µM
- TGI [26]: > 100 µM
- TGI [53]: > 100 µM
- TGI [28]: > 100 µM
- TGI [54]: > 100 µM
- TGI [29]: > 100 µM
- TGI [30]: > 100 µM
- TGI [31]: > 100 µM
- TGI [32]: > 100 µM
- TGI [55]: > 100 µM
- TGI [56]: > 100 µM
- TGI [34]: > 100 µM
- TGI [57]: > 100 µM
- TGI [58]: > 100 µM
- TGI [59]: > 100 µM
- TGI [60]: > 100 µM
- TGI [61]: > 100 µM
- TGI [37]: > 100 µM
- TGI [62]: > 100 µM

SMILES: CC[C@@H]1OC2(C)CC(S(=O)(=O)c3ccccc3)CC1O2 (stereo partly drawn)
- TGI [1]: > 100 µM
- TGI [2]: > 100 µM
- TGI [38]: > 100 µM
- TGI [39]: > 100 µM
- TGI [4]: > 100 µM
- TGI [40]: > 100 µM
- TGI [41]: > 100 µM
- TGI [5]: > 100 µM
- TGI [6]: > 100 µM
- TGI [7]: > 100 µM
- TGI [8]: > 100 µM
- TGI [9]: > 100 µM
- TGI [44]: > 100 µM
- TGI [45]: > 100 µM
- TGI [10]: > 100 µM
- TGI [11]: > 100 µM
- TGI [63]: > 100 µM
- TGI [12]: > 100 µM
- TGI [13]: > 100 µM
- TGI [14]: > 100 µM
- TGI [47]: > 100 µM
- TGI [15]: > 100 µM
- TGI [16]: > 100 µM
- TGI [48]: > 100 µM
- TGI [17]: > 100 µM
- TGI [18]: > 100 µM
- TGI [19]: > 100 µM
- TGI [49]: > 100 µM
- TGI [50]: > 100 µM
- TGI [21]: > 100 µM
- TGI [22]: > 100 µM
- TGI [23]: > 100 µM
- TGI [51]: > 100 µM
- TGI [24]: > 100 µM
- TGI [25]: > 100 µM
- TGI [26]: > 100 µM
- TGI [27]: > 100 µM
- TGI [53]: > 100 µM
- TGI [28]: > 100 µM
- TGI [54]: > 100 µM
- TGI [29]: > 100 µM
- TGI [30]: > 100 µM
- TGI [31]: > 100 µM
- TGI [32]: > 100 µM
- TGI [55]: > 100 µM
- TGI [33]: > 100 µM
- TGI [56]: > 100 µM
- TGI [34]: > 100 µM
- TGI [35]: > 100 µM
- TGI [58]: > 100 µM
- TGI [59]: > 100 µM
- TGI [60]: > 100 µM
- TGI [36]: > 100 µM
- TGI [37]: > 100 µM
- TGI [62]: > 100 µM

Source: PubChem BioAssay (NCI)
